According to paper PMC11329504, “Identification of novel small molecule-based strategies of COL7A1 upregulation and readthrough activity for the treatment of recessive dystrophic epidermolysis bullosa” (Scientific Reports, 2024):
Read-outs that look alike come from different tables or passages of the source. Blank lines part the entries; values can stand above or below the compound they belong to.

Legend:
[1] = system: MDH1 native stop codon readthrough in RDEB_L1 and RDEB_L5 cells; test: Western blot of MDH1 native stop codon (NSC) readthrough selectivity; type: cell-based, human; conditions: 48 h
Description: In the absence of a verified target or mechanism of action, a key aspect of phenotypic screening is to ensure that the phenotypic activity is sufficiently selective and has minimal or no interference in physiologically close cellular processes. In this context, the selectivity of readthrough compounds vs native stop codons (NSC) and normal codon–anticodon recognition is an important endpoint to verify the selectivity of hit compounds. For that purpose, we analyzed the translation products of MDH-1, a gene that has an alternative native stop codon that has been used as a surrogate of non-specific readthrough activity[42],[43]. […] For western blot, RDEB or normal human keratinocytes were lysed in protein extraction buffer (50 mM Tris–HCl [pH 7.5], 100 mM NaCl, 1% Nonidet P-40, and 4 mM EDTA) containing proteinase inhibitors cocktail (Complete Mini, EDTA free; Roche Diagnostics, Mannheim, Germany). Lysates were incubated for 30 min on ice and centrifuged at 15,000 g for 30 min at 4 °C. Supernatants were then collected and concentrated by ultrafiltration using Amicon Ultra columns (10 kDa; Millipore, Ireland). Protein concentrations were measured using the Bradford assay (Bio-Rad, Hercules, CA). […] A. Nystrom, University of Freiburg). Invitrogen anti-MDH1 polyclonal antibody (PA550446, 1:1000) was used to detect MDH1. […]

[2] = biological target: Tyk2 (Homo sapiens, UniProt P29597); test: Enzymatic Tyk2 kinase activity; type: biochemical; conditions: dose-response curves; read-out: IC50 ± SD, Tyk2
Sequence of Tyk2 (P29597 whole entry, species assumed): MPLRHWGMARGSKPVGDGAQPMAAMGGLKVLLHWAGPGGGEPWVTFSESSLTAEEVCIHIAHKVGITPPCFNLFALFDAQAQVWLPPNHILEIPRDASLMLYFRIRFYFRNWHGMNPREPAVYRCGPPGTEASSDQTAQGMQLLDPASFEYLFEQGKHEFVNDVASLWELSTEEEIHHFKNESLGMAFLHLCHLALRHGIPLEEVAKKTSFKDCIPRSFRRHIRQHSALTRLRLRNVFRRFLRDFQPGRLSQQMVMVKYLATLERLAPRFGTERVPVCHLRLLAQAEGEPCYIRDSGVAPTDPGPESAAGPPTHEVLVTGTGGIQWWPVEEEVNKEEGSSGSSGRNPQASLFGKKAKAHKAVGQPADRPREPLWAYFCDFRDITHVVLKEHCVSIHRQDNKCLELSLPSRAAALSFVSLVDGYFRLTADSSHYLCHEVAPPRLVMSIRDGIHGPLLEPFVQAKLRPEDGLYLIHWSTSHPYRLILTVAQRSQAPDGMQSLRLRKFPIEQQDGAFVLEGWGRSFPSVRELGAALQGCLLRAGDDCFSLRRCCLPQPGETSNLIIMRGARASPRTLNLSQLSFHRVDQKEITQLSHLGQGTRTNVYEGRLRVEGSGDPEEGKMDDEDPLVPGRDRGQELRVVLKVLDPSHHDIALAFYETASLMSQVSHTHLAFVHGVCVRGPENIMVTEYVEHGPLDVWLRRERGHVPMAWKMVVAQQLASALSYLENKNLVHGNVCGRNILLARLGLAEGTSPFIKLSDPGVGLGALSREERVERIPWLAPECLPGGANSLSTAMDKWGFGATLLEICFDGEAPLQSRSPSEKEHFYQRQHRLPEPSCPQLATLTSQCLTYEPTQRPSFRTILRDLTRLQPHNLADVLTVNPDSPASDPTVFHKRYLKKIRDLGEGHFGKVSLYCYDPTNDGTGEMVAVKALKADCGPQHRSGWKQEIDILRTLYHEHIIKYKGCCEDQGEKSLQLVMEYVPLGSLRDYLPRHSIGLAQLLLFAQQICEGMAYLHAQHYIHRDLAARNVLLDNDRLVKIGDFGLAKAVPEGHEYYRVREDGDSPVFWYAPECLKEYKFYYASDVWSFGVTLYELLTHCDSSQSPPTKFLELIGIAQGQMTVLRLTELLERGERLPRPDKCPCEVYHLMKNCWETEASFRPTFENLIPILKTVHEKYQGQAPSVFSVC
Protocol: (§1) Enzymatic Syk kinase activity assays were performed as previously described. Enzymatic activity of JAK1, JAK2, JAK3, and Tyk kinases was evaluated as previously described.

[3] = biological target: T1, JAK3 (Homo sapiens, UniProt P52333); test: Enzymatic JAK3 kinase activity; type: biochemical; conditions: dose-response curves; read-out: IC50 ± SD, JAK3
T1 sequence (P52333 1-1124): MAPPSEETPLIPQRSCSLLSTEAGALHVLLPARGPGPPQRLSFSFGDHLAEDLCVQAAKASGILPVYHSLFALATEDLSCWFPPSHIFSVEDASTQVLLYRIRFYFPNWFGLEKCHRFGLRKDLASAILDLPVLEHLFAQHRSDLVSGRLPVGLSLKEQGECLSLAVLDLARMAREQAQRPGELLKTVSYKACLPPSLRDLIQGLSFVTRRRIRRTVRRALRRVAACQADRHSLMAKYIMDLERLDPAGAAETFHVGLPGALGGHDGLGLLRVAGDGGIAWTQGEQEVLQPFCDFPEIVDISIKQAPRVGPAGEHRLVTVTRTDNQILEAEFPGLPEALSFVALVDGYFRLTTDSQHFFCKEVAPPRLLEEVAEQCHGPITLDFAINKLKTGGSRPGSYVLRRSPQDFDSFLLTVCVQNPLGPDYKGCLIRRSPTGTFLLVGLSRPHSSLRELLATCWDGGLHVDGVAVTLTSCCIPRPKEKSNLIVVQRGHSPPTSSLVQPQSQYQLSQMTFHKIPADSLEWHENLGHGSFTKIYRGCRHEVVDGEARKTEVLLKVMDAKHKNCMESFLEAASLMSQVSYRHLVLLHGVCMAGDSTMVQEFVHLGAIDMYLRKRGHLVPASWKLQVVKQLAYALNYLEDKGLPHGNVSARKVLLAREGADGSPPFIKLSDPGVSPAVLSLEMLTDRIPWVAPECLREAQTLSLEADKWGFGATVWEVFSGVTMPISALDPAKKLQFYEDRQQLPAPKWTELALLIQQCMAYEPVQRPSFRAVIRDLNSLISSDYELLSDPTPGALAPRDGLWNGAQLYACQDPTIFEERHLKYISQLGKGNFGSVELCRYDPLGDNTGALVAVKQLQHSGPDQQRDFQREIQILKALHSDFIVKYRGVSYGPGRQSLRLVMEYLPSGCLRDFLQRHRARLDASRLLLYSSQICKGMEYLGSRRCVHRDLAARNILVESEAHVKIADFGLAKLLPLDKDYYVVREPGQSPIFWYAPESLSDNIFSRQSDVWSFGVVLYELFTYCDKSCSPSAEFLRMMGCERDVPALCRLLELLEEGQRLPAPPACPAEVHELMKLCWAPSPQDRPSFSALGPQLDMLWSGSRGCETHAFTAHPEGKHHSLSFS
Protocol: as §1

[4] = biological target: JAK2 (Homo sapiens, UniProt O60674); test: Enzymatic JAK2 kinase activity; type: biochemical; conditions: dose-response curves; read-out: IC50 ± SD, JAK2
Sequence of JAK2 (O60674 whole entry, species assumed): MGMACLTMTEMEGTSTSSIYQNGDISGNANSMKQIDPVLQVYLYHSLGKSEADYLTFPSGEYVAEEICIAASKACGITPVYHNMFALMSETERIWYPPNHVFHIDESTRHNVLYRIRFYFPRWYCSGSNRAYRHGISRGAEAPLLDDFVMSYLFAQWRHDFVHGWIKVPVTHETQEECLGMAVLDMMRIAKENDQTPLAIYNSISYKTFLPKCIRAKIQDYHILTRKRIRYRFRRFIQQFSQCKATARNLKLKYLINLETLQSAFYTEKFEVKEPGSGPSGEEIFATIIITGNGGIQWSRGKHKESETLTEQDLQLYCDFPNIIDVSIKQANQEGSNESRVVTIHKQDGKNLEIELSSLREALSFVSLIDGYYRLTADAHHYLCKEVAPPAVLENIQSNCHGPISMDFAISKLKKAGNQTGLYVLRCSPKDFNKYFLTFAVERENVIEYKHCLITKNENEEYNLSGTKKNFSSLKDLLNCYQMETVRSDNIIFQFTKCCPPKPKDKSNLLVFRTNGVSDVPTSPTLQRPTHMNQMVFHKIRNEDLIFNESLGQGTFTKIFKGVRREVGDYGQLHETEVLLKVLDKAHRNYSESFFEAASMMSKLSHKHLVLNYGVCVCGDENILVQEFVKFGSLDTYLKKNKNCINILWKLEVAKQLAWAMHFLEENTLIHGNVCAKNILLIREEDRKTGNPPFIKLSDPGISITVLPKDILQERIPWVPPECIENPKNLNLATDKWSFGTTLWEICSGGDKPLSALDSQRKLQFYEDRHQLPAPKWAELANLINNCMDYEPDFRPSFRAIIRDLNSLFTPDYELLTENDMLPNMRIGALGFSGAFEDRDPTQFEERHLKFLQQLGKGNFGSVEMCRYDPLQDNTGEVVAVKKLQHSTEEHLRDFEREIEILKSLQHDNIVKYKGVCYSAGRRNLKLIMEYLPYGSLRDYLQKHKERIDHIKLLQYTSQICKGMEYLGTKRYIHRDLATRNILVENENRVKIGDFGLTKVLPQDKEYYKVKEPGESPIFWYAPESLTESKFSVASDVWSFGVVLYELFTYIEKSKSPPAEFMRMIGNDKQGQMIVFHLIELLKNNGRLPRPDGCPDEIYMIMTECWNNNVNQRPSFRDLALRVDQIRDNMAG
Protocol: as §1

[5] = biological target: JAK1 (Homo sapiens, UniProt P23458); test: Enzymatic JAK1 kinase activity; type: biochemical; conditions: dose-response curves; read-out: IC50 ± SD, JAK1
Protocol: as §1

[6] = biological target: Syk (Homo sapiens, UniProt P43405); test: Enzymatic Syk kinase activity; type: biochemical; conditions: dose-response curves; read-out: IC50 ± SD, Syk
Protocol: as §1

[7] = biological target: T2, A2A (Homo sapiens, UniProt P29274); test: Selectivity panel (Eurofins): A2A adenosine receptor; type: binding
T2 construct: Eurofins Pharma Discovery Services
T2 sequence (P29274 whole entry): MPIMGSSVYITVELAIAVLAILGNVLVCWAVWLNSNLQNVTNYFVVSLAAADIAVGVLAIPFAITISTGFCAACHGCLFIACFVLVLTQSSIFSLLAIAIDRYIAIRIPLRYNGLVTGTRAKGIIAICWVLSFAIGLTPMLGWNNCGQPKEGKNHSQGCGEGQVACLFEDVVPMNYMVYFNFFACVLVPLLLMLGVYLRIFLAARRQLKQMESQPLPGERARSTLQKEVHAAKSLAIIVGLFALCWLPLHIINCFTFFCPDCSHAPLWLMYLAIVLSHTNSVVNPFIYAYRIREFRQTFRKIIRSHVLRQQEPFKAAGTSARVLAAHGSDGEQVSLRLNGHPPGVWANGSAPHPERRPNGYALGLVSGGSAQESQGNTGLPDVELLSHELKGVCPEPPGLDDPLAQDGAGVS

[8] = biological target: T3, SAPK2α (Homo sapiens, UniProt Q16539); test: Selectivity panel (Eurofins): p38/SAPK2α kinase; type: biochemical
T3 construct: Eurofins Pharma Discovery Services
T3 sequence (Q16539 whole entry): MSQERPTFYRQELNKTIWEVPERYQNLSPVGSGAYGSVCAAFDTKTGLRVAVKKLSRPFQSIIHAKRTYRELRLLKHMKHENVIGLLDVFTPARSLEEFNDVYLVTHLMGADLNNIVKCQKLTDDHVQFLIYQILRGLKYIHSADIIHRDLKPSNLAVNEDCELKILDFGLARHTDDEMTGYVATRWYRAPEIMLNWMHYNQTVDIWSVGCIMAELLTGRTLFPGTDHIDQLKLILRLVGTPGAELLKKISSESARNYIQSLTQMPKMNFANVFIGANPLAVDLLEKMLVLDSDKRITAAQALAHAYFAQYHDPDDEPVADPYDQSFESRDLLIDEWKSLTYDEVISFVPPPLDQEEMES

[9] = biological target: T4, Dopamine transporter (Homo sapiens, UniProt Q01959); test: Selectivity panel (Eurofins): dopamine transporter; type: binding; conditions: n = 1, duplicate
T4 construct: Eurofins Pharma Discovery Services
T4 sequence (Q01959 whole entry): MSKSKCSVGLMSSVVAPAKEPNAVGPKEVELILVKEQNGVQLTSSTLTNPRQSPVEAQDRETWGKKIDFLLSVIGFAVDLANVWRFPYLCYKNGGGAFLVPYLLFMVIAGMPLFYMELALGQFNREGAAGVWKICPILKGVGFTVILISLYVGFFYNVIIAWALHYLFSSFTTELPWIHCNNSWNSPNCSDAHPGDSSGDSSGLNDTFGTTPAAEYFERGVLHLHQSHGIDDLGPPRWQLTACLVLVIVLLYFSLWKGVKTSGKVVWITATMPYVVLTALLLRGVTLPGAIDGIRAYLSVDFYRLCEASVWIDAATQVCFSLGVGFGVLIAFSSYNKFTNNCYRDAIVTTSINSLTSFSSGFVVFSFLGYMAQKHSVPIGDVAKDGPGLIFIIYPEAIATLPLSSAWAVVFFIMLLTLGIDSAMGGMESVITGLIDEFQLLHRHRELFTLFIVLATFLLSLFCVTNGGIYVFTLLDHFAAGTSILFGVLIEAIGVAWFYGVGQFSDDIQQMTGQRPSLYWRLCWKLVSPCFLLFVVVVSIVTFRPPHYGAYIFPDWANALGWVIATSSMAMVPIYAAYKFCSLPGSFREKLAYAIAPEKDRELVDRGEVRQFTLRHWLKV
Protocol: (§2) Selectivity was evaluated at Eurofins Pharma Discovery Services at 3 µM, 10 µM, and 30 µM in duplicate using a selection of 84 representative kinases and 44 GPCRs, transporters, nuclear receptors (NR), enzymes, and ion channels.

[10] = biological target: T5, PDE4D2 (Homo sapiens, UniProt Q08499); test: Selectivity panel (Eurofins): PDE4D2; type: biochemical; conditions: n = 1, duplicate
T5 construct: Eurofins Pharma Discovery Services
T5 sequence (Q08499 303-809 limits assumed): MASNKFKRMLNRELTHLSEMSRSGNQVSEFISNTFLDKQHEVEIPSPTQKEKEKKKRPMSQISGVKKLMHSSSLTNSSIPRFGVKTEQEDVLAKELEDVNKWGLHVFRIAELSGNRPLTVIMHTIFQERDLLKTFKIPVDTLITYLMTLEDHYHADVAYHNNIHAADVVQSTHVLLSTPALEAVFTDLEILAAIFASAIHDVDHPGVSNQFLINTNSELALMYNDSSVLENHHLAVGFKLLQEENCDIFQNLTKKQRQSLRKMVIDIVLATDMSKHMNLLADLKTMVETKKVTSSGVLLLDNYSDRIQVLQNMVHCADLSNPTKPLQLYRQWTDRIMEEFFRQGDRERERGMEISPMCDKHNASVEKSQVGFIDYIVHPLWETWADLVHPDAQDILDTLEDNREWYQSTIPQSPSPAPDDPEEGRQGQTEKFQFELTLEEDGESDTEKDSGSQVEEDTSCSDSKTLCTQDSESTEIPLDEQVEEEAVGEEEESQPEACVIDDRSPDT
Protocol: as §2

[11] = system: Kappa (KOP); test: Selectivity panel (Eurofins): Kappa (KOP); type: binding; conditions: n = 1, duplicate
Protocol: as §2

[12] = at concentrations of 3 and 10 µM

SMILES: CNC(C)C1CCC(N)C(OC2C(N)CC(N)C(OC3OCC(C)(O)C(NC)C3O)C2O)O1 (stereo not shown) [Gentamicin, reference compound]
non-specific readthrough at MDH-1 native stop codon, western blot ([1]; twofold above its EC50 in RDEB_L1): inducing detectable non-specific readthrough

IC50 [2]: 0.03 ± 0.0006 µM | IC50 [3]: 0.06 ± 0.006 µM | IC50 [4]: 0.12 ± 0.06 µM | IC50 [5]: 0.44 ± 0.16 µM | IC50 [6]: 1.72 ± 0.44 µM
SMILES: NC(=O)Cn1ccc2ccc(-c3cnc(N)c(C(=O)NC4C5CC6CC4CC(O)(C6)C5)n3)cc21 (stereo not shown) [Compound 1]

SMILES: C#Cc1cc(-c2ccncc2)c(-c2cccc(F)c2)nc1N [Compound 7]
inhibition at 10 µM ([7]; Table 5, read-out: Selectivity % inhibition, A2A): 96% | inhibition at 3 µM ([7]; at 3 μM, n = 1, duplicate, read-out: % inhibition, A2A): 101% | inhibition at 10 µM ([7]; n = 1, duplicate, read-out: % inhibition, A2A): 100% | inhibition at 30 µM ([7]; at 30 μM, n = 1, duplicate, read-out: % inhibition, A2A): 101% | antagonism/inhibition of A2A adenosine receptor [7, 12]: ≥ 50% | inhibition at 3 µM ([8]; at 3 μM, n = 1, duplicate, read-out: % inhibition, SAPK2α): 90% | inhibition at 10 µM ([8]; at 10 μM, n = 1, duplicate, read-out: % inhibition, SAPK2α): 103% | inhibition at 30 µM ([8]; at 30 μM, n = 1, duplicate, read-out: % inhibition, SAPK2α): 107% | antagonism/inhibition of p38/SAPK2α kinase [8, 12]: ≥ 50% | inhibition at 3 µM ([9]; at 3 μM): 17% | inhibition at 10 µM ([9]; at 10 μM): 40% | inhibition at 30 µM ([9]; at 30 μM): 64% | inhibition at 3 µM ([10]; at 3 μM): 16% | inhibition at 10 µM ([10]; at 10 μM): 34% | inhibition at 30 µM ([10]; at 30 μM): 61% | % inhibition, Kappa (KOP) ([11]; at 3 μM): 12% | % inhibition, Kappa (KOP) ([11]; at 10 μM): 32% | % inhibition, Kappa (KOP) ([11]; at 30 μM): 54% | non-specific readthrough at MDH-1 native stop codon, western blot ([1]; two and threefold above its EC50 in RDEB_L5 and RDEB_L1 cells respectively): did not induce non-specific readthrough above background levels
